pIC50: −log10 of the molar value. Where two headings read alike, the source gives them in different places. Each block holds one compound with its values, some of them ahead of it.
Target: T1, Human macrophage mannose receptor 1 (MRC1) (Homo sapiens, UniProt P22897)
T1 sequence (P22897 19-1456): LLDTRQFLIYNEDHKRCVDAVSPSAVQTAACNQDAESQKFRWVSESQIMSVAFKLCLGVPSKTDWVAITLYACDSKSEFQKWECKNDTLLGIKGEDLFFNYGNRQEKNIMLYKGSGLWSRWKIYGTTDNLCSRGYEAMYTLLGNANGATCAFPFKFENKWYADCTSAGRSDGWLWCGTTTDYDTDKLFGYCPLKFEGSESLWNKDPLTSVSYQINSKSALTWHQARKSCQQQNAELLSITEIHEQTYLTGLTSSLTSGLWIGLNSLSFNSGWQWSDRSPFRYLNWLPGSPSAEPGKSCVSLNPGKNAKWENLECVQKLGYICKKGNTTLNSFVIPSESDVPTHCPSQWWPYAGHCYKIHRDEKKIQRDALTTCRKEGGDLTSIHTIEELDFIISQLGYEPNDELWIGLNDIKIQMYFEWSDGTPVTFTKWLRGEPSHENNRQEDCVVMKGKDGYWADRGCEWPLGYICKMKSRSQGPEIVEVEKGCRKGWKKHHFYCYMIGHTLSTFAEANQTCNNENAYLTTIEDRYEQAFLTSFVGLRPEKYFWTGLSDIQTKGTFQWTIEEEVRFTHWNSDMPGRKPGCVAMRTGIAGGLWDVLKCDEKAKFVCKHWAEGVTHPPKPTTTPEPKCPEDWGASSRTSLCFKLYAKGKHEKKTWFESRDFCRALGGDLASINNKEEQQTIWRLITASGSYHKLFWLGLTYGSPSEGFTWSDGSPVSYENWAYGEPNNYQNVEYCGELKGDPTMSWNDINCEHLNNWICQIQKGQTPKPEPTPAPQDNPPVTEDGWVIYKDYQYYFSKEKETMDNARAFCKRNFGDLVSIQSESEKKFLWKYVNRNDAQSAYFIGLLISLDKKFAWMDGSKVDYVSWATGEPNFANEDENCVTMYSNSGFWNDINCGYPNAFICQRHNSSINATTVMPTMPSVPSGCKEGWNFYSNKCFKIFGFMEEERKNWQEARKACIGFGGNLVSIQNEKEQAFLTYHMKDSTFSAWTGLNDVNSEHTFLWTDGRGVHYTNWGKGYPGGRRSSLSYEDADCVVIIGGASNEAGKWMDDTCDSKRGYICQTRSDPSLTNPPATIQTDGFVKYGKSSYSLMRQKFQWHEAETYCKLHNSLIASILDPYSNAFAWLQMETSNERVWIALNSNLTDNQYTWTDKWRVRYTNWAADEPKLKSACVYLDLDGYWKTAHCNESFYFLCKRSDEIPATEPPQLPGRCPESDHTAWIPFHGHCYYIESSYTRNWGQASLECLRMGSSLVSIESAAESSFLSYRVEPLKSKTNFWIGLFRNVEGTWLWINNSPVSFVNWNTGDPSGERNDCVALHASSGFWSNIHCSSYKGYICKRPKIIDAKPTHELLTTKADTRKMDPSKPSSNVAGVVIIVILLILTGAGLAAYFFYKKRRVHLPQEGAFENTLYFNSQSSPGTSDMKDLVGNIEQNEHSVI
Test: MRC1 competition binding assay with Eu-mannosylated-BSA
Conditions: IP = inflection point, read-out: MRC1 Binding IP

Structure (SMILES): CC(=O)[C@H](CCCCN)NC(=O)CCCCC(=O)N[C@@H](CCC(=O)NCCO[C@H]1O[C@H](CO)[C@@H](O)[C@H](O)[C@@H]1O)C(=O)N[C@@H](CCC(=O)NCCO[C@H]1O[C@H](CO)[C@@H](O)[C@H](O)[C@@H]1O)C(=O)N[C@@H](CCC(=O)NCCO[C@H]1O[C@H](CO)[C@@H](O)[C@H](O)[C@@H]1O)C(=O)NCCO[C@H]1O[C@H](CO[C@H]2O[C@H](CO)[C@@H](O)[C@H](O)[C@@H]2O)[C@@H](O)[C@H](O[C@H]2O[C@H](CO)[C@@H](O)[C@H](O)[C@@H]2O)[C@@H]1O [IOC-23]
pIC50 (Method E: 96-well plate): 7.43

Structure (SMILES): CC(=O)[C@H](CCCCN)NC(=O)CCCCC(=O)NCC(=O)N[C@@H](CCC(=O)N[C@@H](CCC(=O)NCCCCCC(=O)N(CCOC1O[C@H](CO)[C@@H](O)[C@H](O)[C@@H]1O)CCO[C@H]1O[C@H](CO)[C@@H](O)[C@H](O)[C@@H]1O)C(=O)NCCCCCC(=O)N(CCOC1O[C@H](CO)[C@@H](O)[C@H](O)[C@@H]1O)CCOC1O[C@H](CO)[C@@H](O)[C@H](O)[C@@H]1O)C(=O)NCCCCCC(=O)NCCO[C@H]1O[C@H](CO[C@H]2O[C@H](CO)[C@@H](O)[C@H](O)[C@@H]2O)[C@@H](O)[C@H](O[C@H]2O[C@H](CO)[C@@H](O)[C@H](O)[C@@H]2O)[C@@H]1O (stereo partly drawn) [IOC-32]
pIC50 (Method F: 384-well plate): 6.22

Structure (SMILES): CC(=O)[C@H](CCCCN)NC(=O)CCCCC(=O)NCC(=O)N[C@@H](CCC(=O)N[C@@H](CCC(=O)NCCCCCC(=O)N(CCOC1O[C@H](CO)[C@@H](O)[C@H](O)[C@@H]1O)CCO[C@H]1O[C@H](CO)[C@@H](O)[C@H](O)[C@@H]1O)C(=O)NCCCCCC(=O)N(CCOC1O[C@H](CO)[C@@H](O)[C@H](O)[C@@H]1O)CCOC1O[C@H](CO)[C@@H](O)[C@H](O)[C@@H]1O)C(=O)NCCCCCC(=O)NCCO[C@H]1O[C@H](CO[C@H]2O[C@H](CO)[C@@H](O)[C@H](O)[C@@H]2O)[C@@H](O)[C@H](O[C@H]2O[C@H](CO)[C@@H](O)[C@H](O)[C@@H]2O)[C@@H]1O (stereo partly drawn) [IOC-34]
pIC50 (Method F: 384-well plate): 8.10

Further lines, results first:

pIC50 (Method F: 384-well plate): 7.54
Structure (SMILES): CC(=O)[C@H](CCCCN)NC(=O)CCCCC(=O)NCC(=O)N[C@@H](CCC(=O)N[C@@H](CCC(=O)NCCCCCC(=O)N(CCOC1O[C@H](CO)[C@@H](O)[C@H](O)[C@@H]1O)CCO[C@H]1O[C@H](CO)[C@@H](O)[C@H](O)[C@@H]1O)C(=O)NCCCCCC(=O)N(CCOC1O[C@H](CO)[C@@H](O)[C@H](O)[C@@H]1O)CCOC1O[C@H](CO)[C@@H](O)[C@H](O)[C@@H]1O)C(=O)NCCCCCC(=O)N(CC(=O)NCCO[C@@H]1O[C@@H](C)[C@@H](O)[C@@H](O)[C@@H]1O)CC(=O)NCCO[C@@H]1O[C@@H](C)[C@@H](O)[C@@H](O)[C@@H]1O (stereo partly drawn) [IOC-51]

pIC50 (Method E: 96-well plate): 7.26
Structure (SMILES): CC(=O)[C@H](CCCCN)NC(=O)CCCCC(=O)N[C@@H](CCC(=O)NCCCCCC(=O)N(CCOC1O[C@H](CO)[C@@H](O)[C@H](O)[C@@H]1O)CCOC1O[C@H](CO)[C@@H](O)[C@H](O)[C@@H]1O)C(=O)N[C@@H](CCC(=O)NCCCCCC(=O)N(CCOC1O[C@H](CO)[C@@H](O)[C@H](O)[C@@H]1O)CCO[C@H]1O[C@H](CO)[C@@H](O)[C@H](O)[C@@H]1O)C(=O)N[C@@H](CC(C)C)C(=O)NCCCCCC(=O)N(CCOC1O[C@H](CO)[C@@H](O)[C@H](O)[C@@H]1O)CCOC1O[C@H](CO)[C@@H](O)[C@H](O)[C@@H]1O (stereo partly drawn) [IOC-49]

pIC50 (Method F: 384-well plate): 8.04
Structure (SMILES): CC(=O)[C@H](CCCCN)NC(=O)CCCCCNC(=O)[C@H](CCCCNC(=O)CCCCCNC(=O)CCCCCNC(=O)CN(CC(=O)NCCO[C@H]1O[C@H](CO)[C@@H](O)[C@H](O)[C@@H]1O)CC(=O)NCCO[C@@H]1O[C@@H](C)[C@@H](O)[C@@H](O)[C@@H]1O)NC(=O)[C@H](CCCCNC(=O)CCCCCNC(=O)CN(CC(=O)NCCO[C@H]1O[C@H](CO)[C@@H](O)[C@H](O)[C@@H]1O)CC(=O)NCCO[C@@H]1O[C@@H](C)[C@@H](O)[C@@H](O)[C@@H]1O)NC(=O)CCCCCNC(=O)CN(CC(=O)NCCO[C@H]1O[C@H](CO)[C@@H](O)[C@H](O)[C@@H]1O)CC(=O)NCCO[C@@H]1O[C@@H](C)[C@@H](O)[C@@H](O)[C@@H]1O [IOC-53]

From patent publication US12427187B2, “Glucose-responsive insulin conjugates” (priority 2019, dated 2025)
